In paper PMC6717735, “Therapeutic Effect of pHLIP-mediated CEACAM6 Gene Silencing in Lung Adenocarcinoma” (Scientific Reports, 2019):

Legend:
[1] = system: A549 tumours; assay: A549 xenograft tumour growth; assay type: in vivo, BALB/c nude mice; settings: compared with vehicle-treated mice; for reduction in tumour growth: n = 5
Experimental: We first assessed the knockdown efficacy of delivered […]6 in vivo. For in vivo analysis, BALB/c nude mice were subcutaneously injected with 1.2 × 10^7 A549 cells. Two weeks after tumour initiation, […]6 was injected into the mice via the tail vein with saline used as a negative control. To determine the optimal amount of […]6 for injection, two groups of mice (n = 5 mice/group) were injected with different doses (2 mg/kg and 4 mg/kg) twice per week for 3 weeks. Because cisplatin is the backbone of lung cancer treatment, cisplatin-treated mice served as the positive control. […] After 3 weeks of treatment, all mice were sacrificed. Next, we assessed the antitumour effects of concurrent chemotherapy and CEACAM6 targeting. […] According to the in vivo results, a dose of 2 mg/kg […]6 was selected for combination treatment. […] Tumour volume was measured every 2-3 days. […] None of the mice included in the therapeutic experiments experienced overt body weight loss or organ damage over the treatment period (Supplementary Fig. 5a,b). All animal work was performed in accordance with a protocol approved by the Institutional Animal Care and Use Committee of the Korea Research Institute of Bioscience and Biotechnology. A549 cells were subcutaneously injected into the right flanks of 5-week-old BALB/c athymic nude mice (n = 5 mice/group; 1.2 × 10^7 cells/mouse). Tumour growth was determined by measuring the length (L), width (W), and height (H) with callipers and using the formula V = (L × W × H) × 0.5.

[2] = system: A549 tumours; assay: Ki-67 immunostaining of xenograft tumours (proliferation); assay type: in vivo, BALB/c nude mice; settings: n = 5 tumours/group
Experimental: Mice were killed by carbon dioxide asphyxiation. Staining was performed in formalin-fixed, paraffin-embedded tumour sections (4-μm thickness). Fully automated immunostaining was achieved using a BenchMark XT autostainer (Ventana Medical Systems Inc., Tucson, AZ, USA). The following antibodies were used: monoclonal mouse anti-human CEACAM6 (9A6, 1:4,000; Santa Cruz Biotechnology Inc.), anti-CC3 (1:100, BioCare Medical, Pacheco, CA, USA), and anti-Ki-67 (1:100, VP-K452; Vector Laboratory, Burlington, Canada). The number of positive cells per tumour area was quantified.

## N.N.[Cl][Pt][Cl] [cisplatin]
[1]; 2 mg/kg intraperitoneally 3 times/week for 3 weeks
  reduction in tumour growth: 46.7%
[1]; 2 mg/kg intraperitoneally twice/week for 3 weeks
  reduction in tumour growth: 35.0%
[1]; combination study: pHLIP-siCEACAM6 2 mg/kg via tail vein, cisplatin intraperitoneally, twice per week for 3 weeks, n = 5 mice/group
  reduction in tumour volume: 29.9%
[2]; combination study, after 3 weeks of systemic therapy
  cell proliferation in tumours (Ki-67 staining): 18.4%
[2]; single-agent study, tumours harvested after 3 weeks
  proliferation level (Ki-67 staining): 11.2%
